What was measured:
[1] = target: T1, Protein kinase C alpha type (Homo sapiens, UniProt P17252); experiment: Displacement of phorbol 12,13-dibutyrate (PDBU) from recombinant Protein kinase C alpha
[2] = target: T1, Protein kinase C alpha type; experiment: Displacement of phorbol 12,13-dibutyrate (PDBU) from recombinant Protein kinase C alpha (Inactive at 300 nM)

| Ki [1] [µM] | Ki [2] | Compound |
| --- | --- | --- |
| 21 | – | CCCCCCCCC#Cc1ccc2c(c1)[C@@H](CO)NC(=O)[C@H](C(C)C)N2C |
| 127 | – | CC(C)[C@H]1C(=O)N[C@H](CO)c2ccccc2N1C |
| – | Not Active | CC(C)[C@H]1C(=O)NC(CO)c2ccccc2N1C (single isomer, unassigned) |

Source: ChEMBL document CHEMBL1131708, “Synthesis and protein kinase C binding activity of benzolactam-V7” (Bioorg Med Chem Lett, 1999)
